Measurements reported in patent publication US5563125A, “5'-deoxy-5'-(substituted)alkylthioribose compounds and their pharmaceutical compositions” (priority 1992, dated 1996).
Read-outs that look alike come from different tables or passages of the source.

Columns and labels:
[1] = system: T. b. brucei procyclic trypanosomes (Lab 110 EATRO strain); assay: In vitro antitrypanosomal activity, procyclic trypanosomes in T2 medium; assay type: cell-based, Trypanosoma brucei brucei; details: 3-5 days
Method: The antitrypanosomal effects of HETA and other nucleosides were examined in the Lab 110 EATRO strain of T. b. brucei in culture.
Cells were cultured as described in Bacchi et al. Exp. Parasitol. 68, 392, 1989. Cells were then grown in the presence of the compounds for 3-5 days. Drugs were filtered, sterilized and added aseptically. Control cells achieved a maximum density of 1.5-3.5×10^7 /ml. Hemocytometer counts were made daily and the results were expressed as a percent of control growth. IC50 plots were obtained by graphing log (drug) vs. percent growth inhibition.
Trypanocidal Activity of MTA and MTR Analogs
against T. b. brucei procyclic trypanosomes in T2 medium.

[2] = system: Trichomonas vaginalis ATCC 3001; assay: Minimum lethal concentration against Trichomonas vaginalis, multiwell plate assay, ATCC 3001; assay type: cell-based
Description: (§1) Preliminary in vitro evaluation of HETA and other compounds against isolates of Trichomonas vaginalis was done.
(§2) Values are expressed as μg of compound per ml of medium required to inhibit growth and motility of the parasite in a multiwell plate assay as described by Meingassner, Mieth, Czok, Lindmark and Muller (1978) Antimicrob. Agents and Chemother. 13, 1-3. The present drug used for treatment--metronidazole (Flagyl®) is included for comparison. Strain ATCC 50143 (CDC-85) was refractory to chemotherapeutic dose levels of metronidazole. (ND=not done).

[3] = system: Trichomonas vaginalis ATCC 50143 (CDC-85), metronidazole-resistant; assay: Minimum lethal concentration against Trichomonas vaginalis, multiwell plate assay, ATCC 50143 (CDC-85); assay type: cell-based
Description: as §1, §2

[4] = target: T1, Mouse Liver MTA Phosphorylase (Mus musculus, UniProt Q9CQ65); assay: Mouse liver MTA phosphorylase substrate/inhibitor assay; assay type: biochemical; details: for Substrate (% Control): substrate activity relative to MTA
T1 sequence (Q9CQ65 1-283): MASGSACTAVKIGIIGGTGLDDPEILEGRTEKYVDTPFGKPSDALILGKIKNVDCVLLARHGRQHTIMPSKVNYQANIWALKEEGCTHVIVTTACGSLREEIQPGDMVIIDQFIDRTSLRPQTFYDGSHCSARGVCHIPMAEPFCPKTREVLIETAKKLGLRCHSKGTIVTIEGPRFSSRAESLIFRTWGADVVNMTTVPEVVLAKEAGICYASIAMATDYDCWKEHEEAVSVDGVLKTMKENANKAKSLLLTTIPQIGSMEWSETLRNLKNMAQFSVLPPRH
Method: (§3) ^a MTA phosphorylase activity was assayed as described in Sufrin et

[5] = target: T2, T. b. brucei MTA phosphorylase (Trypanosoma brucei, UniProt Q57XS4); assay: T. b. brucei MTA phosphorylase substrate assay; assay type: biochemical; details: for Percent Control Activity: relative to MTA
T2 construct: MTA or analogs as substrates
Method: ^a MTA phosphorylase was assayed according to Ghoda et al., using 200
μM MTA (saturating) or analogs as substrates. Specific activities of
the dialyzed enzyme preparations were with 50 mM PO4, 104.97 n
moles/mg protein/h; without PO4, 28.27 n moles/mg protein/h. Results
are expressed as percent activity compared to as substrate with and
without PO4, respectively.

[6] = system: L1210 cells (MTA phosphorylase-deficient); assay: Growth inhibition of L1210 cells; assay type: cell-based, mouse; details: L1210, 48 h
Method: (§4) L1210, L5178Y and MOLT-4 cell lines were grown in RPMI 1640 and 10% Nu Serum (Collaborative Research Inc., Lexington, Mass.) and CCRF-CEM cells were grown in 10% Horse Serum (Gibco Laboratories, Grand Island, N.Y.) and maintained as previously described for suspension cultures by Pera et al. in Cancer Res. 46, 1148, 1986. Cell cultures (0.3×10^5 cells/ml) were treated with each compound at 0.1 to 1000 μM to determine the concentration that inhibited growth by 50% (IC50) at 48 hr for the L1210 and L5178Y cells and at 96 hr for the CCRF-CEM and MOLT-4 cells. The incubation times allowed approximately 4 cell doublings in each cell line. All compounds were freshly prepared prior to treatment by dissolving in DMSO and diluting in serum-free media. Cells were counted by electron particle counting (Model XF' Coulter Counter; Coulter Electronics, Hialeah, Fla.).
(§5) For each compound, the concentrations required to inhibit cell growth by 50% (IC50 values) are shown in Table 7 for two murine leukemic cell lines, L1210 and L5178Y [MTA phosphorylase-deficient and MTA phosphorylase-containing, respectively] and two human leukemic cell lines, CCRF-CEM and MOLT-4 [MTA phosphorylase-deficient and MTA phosphorylase-containing, respectively]. ETA, MFETA, HETA and PTA had lower IC50 values in the L5178Y cells than in the L1210 cells. […] This differential is consistent with the possibility that, in L5178Y cells, MFETA is cleaved by MTA phosphorylase to the growth inhibitory metabolite, 5-monofluoroethylthioribose-1-phosphate (MFETR-1-P).

[7] = system: L5178Y cells (MTA phosphorylase-containing); assay: Growth inhibition of L5178Y cells; assay type: cell-based, mouse; details: 48 h
Method: as §4, §5

[8] = system: CCRF-CEM cells (MTA phosphorylase-deficient); assay: Growth inhibition of CCRF-CEM cells; assay type: cell-based, human; details: 96 h
Method: as §4, §5

[9] = system: MOLT-4 cells (MTA phosphorylase-containing); assay: Growth inhibition of MOLT-4 cells; assay type: cell-based, human; details: MOLT-4, 96 h
Method: as §4, §5

[10] = system: Plasmodium falciparum (Strain FCR-3: ATCC #30932); assay: Antimalarial activity in vitro, 3H-hypoxanthine incorporation; assay type: cell-based; details: strain FCR-3, in vitro
Method: P. falciparum was cultured by the method of Trager and Jensen (1976). The FCR-3 strain was used for all experiments. For enzyme measurements, parasites were isolated from infected red cells by saponin lysis and stored at -70° C.
To determine drug effects, ^3 H-hypoxanthine incorporation was measured in the following manner. Infected red cells and varying concentrations of drugs were aliquoted in triplicate wells of a 96-well microtiter plate (Corning). Each well contained a total volume of 200 μl with a final hematocrit of 5 percent and parasitemia of 0.5-1%. The microtiter plates were incubated at 37° C. in candle jars. ^3 H-hypoxanthine (0.5 μCi) was added to each well after 24 hours. After an additional 24 hours of incubation, the parasites were harvested using a PHD cell harvester (Cambridge Technologies). Filters were immersed in Aquasol (New England Nuclear) and counted using a LKB rack beta scintillation counter.
*Concentration which inhibits growth by 50% when compared to untreated,
control cultures, and under defined assay conditions.

[11] = system: EATRO 110 strain of T. b. brucei; assay: Bloodstream forms of African trypanosomes grown in vitro, EATRO 110; assay type: cell-based; details: day 4
Method: (§6) Cultures were initiated directly from infected mouse blood into Falcon 24 well plates containing 1 ml of Iscoves modified Dulbecco's medium plus 20% horse serum, 2 mM pyruvate, 2 mM glutamine, and 0.2 uM mercaptoethanol. Initial cell counts were 2.5-5.0×10^5 /ml. Plates were incubated at 37 C. in 5 percent CO2. HETA was dissolved in the medium and filter sterilized. One half the volume of each well was replaced with fresh medium each day.
(§7) Cell counts were made daily. Data are given as percent inhibition of growth as determined by hemocytometer counts on day 4 as compared to control cultures without drug.
(§8) In Table 2, EATRO 110 is a strain of T. b. brucei; and KETRI 2002, and KETRI 243 are T. b. rhodesiense clinical isolates.

[12] = system: KETRI 2002 T. b. rhodesiense clinical isolate; assay: Bloodstream forms of African trypanosomes grown in vitro, KETRI 2002; assay type: cell-based; details: day 4
Method: as §6, §7, §8

[13] = system: KETRI 243 T. b. rhodesiense clinical isolate; assay: Bloodstream forms of African trypanosomes grown in vitro, KETRI 243; assay type: cell-based; details: day 4
Method: as §6, §7, §8

[14] = system: T. b. brucei LAB 110 EATRO; assay: In vivo antitrypanosomal activity, LAB EATRO mouse infection model; details: miniosmotic pump
Method: ^a Animals were treated with surgically implanted miniosmotic pumps
loaded as per manufacturers instructions with MTA, HETA or MFETA suspende

P. falciparum = assay: In vitro antimalarial activity of HETA; assay type: cell-based, Plasmodium falciparum; details: for growth of the microorganism inhibited in an in vitro screen: P. falciparum in vitro screen
[15] = substrate: CSC[C@H]1O[C@@H](n2cnc3c(N)ncnc32)[C@H](O)[C@@H]1O; assay: Mouse liver MTA phosphorylase substrate/inhibitor assay; assay type: biochemical; details: other: mouse liver MTA phosphorylase
Method: as §3

T2 sequence (Q57XS4 entry or part of it): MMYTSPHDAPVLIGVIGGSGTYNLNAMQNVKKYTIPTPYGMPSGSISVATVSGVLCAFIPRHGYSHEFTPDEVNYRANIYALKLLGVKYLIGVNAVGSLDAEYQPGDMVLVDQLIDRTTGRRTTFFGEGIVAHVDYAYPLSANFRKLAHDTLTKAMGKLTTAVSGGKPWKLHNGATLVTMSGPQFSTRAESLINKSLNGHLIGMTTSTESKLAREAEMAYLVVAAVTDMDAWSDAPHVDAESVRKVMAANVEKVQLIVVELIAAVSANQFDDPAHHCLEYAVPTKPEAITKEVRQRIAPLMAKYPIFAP

Molecule: Nc1ncnc2c1ncn2[C@@H]1O[C@H](CSCCCl)[C@@H](O)[C@H]1O [CETA, 5'-deoxy-5'-(chloroethylthio)adenosine]
- IC50 [1]: 2500 nM
- Minimum lethal concentration (MLC) ([2]; ATCC 3001, 24 h): 93.7 µg/mL
- Minimum lethal concentration (MLC) ([2]; ATCC 3001, 48 h): 23.4 µg/mL
- Minimum lethal concentration (MLC) ([3]; ATCC 50143, 24 h): 187.5 µg/mL
- Minimum lethal concentration (MLC) ([3]; ATCC 50143, 48 h): 11.7 µg/mL
- activity against metronidazole(Flagyl)-resistant strain CDC-85 ([3]; CDC-85 strain, preliminary in vitro evaluation): active
- Ki [4]: 12 µM
- Substrate (% Control) [4]: 35 % Control
- Percent Control Activity ([5]; +50 mM PO4, 200 μM substrate): 60%
- Percent Control Activity ([5]; No PO4, 200 μM substrate): 94.4%
- IC50 [6]: 250 µM
- IC50 [7]: 200 µM
- IC50 [8]: 240 ± 90 µM
- IC50 [9]: 30 ± 20 µM

Molecule: CCSC[C@H]1OC(O)[C@H](O)[C@@H]1O (stereo partly shown) [ETR, 5-deoxy-5-(ethylthio)ribose, reference compound]
- IC50 ([1]; Trypanosoma brucei): > 100000 nM
- IC50 [10]: > 1000 µM

Molecule: Nc1ncnc2c1ncn2[C@@H]1O[C@H](CSCCO)[C@@H](O)[C@H]1O [HETA, 5'-deoxy-5'-(hydroxyethylthio)adenosine]
- IC50 ([1]; Trypanosoma brucei): 500 nM
- percent inhibition of growth ([11]; 0.1 um HETA): 0%
- percent inhibition of growth ([11]; 0.5 um HETA): 44%
- percent inhibition of growth ([11]; 1.0 um HETA): 59%
- percent inhibition of growth ([11]; 2.25 um HETA): 70%
- percent inhibition of growth ([12]; 0.1 um HETA): 0%
- percent inhibition of growth ([12]; 0.5 um HETA): 0%
- percent inhibition of growth ([12]; 1.0 um HETA): 15%
- percent inhibition of growth ([12]; 2.25 um HETA): 60%
- percent inhibition of growth ([13]; 0.1 um HETA): 0%
- percent inhibition of growth ([13]; 0.5 um HETA): 0%
- percent inhibition of growth ([13]; 1.0 um HETA): 0%
- percent inhibition of growth ([13]; 2.25 um HETA): 0%
- % Cured ([14]; 25 mg/kg/day, 7 days): 73%
- MSD (mean survival in days of animals dying of infection) ([14]; 25 mg/kg/day, 7 days): 15.3 days
- Number Cured Total ([14]; 25 mg/kg/day, 7 days): 11/15
- % Cured ([14]; 50 mg/kg/day, 7 days): 68%
- MSD (mean survival in days of animals dying of infection) ([14]; 50 mg/kg/day, 7 days): 14.5 days
- Number Cured Total ([14]; 50 mg/kg/day, 7 days): 17/25
- % Cured ([14]; 50 mg/kg/day, 14 days): 60%
- MSD (mean survival in days of animals dying of infection) ([14]; 50 mg/kg/day, 14 days): 18.1 days
- Number Cured Total ([14]; 50 mg/kg/day, 14 days): 9/15
- % Cured ([14]; 100 mg/kg/day, 7 days): 87%
- MSD (mean survival in days of animals dying of infection) ([14]; 100 mg/kg/day, 7 days): 26.0 days
- Number Cured Total ([14]; 100 mg/kg/day, 7 days): 13/15
- % Cured ([14]; 150 mg/kg/day, 7 days): 90%
- MSD (mean survival in days of animals dying of infection) ([14]; 150 mg/kg/day, 7 days): 14.5 days
- Number Cured Total ([14]; 150 mg/kg/day, 7 days): 18/20
- activity against the C1-NIH strain ([2]; C1-NIH strain, preliminary in vitro evaluation): displays activity
- growth of the microorganism inhibited in an in vitro screen (P. falciparum): inhibited
- IC50 (P. falciparum; Plasmodium falciparum, P. falciparum in vitro): ~22 µM
- Ki ([4]; mouse liver MTA phosphorylase, read-out: K1): 26 µM
- Substrate (% Control) [4]: 34 % Control
- Percent Control Activity ([5]; +50 mM PO4, 200 μM substrate): 85%
- Percent Control Activity ([5]; No PO4, 200 μM substrate): 100%
- metabolism by T. b. brucei MTA phosphorylase ([5]; compared with MTA): as effectively as MTA itself
- IC50 ([6]; Mus musculus): 1000 µM
- IC50 ([7]; Mus musculus): 500 µM
- IC50 ([8]; Homo sapiens): 100 µM
- IC50 ([9]; Homo sapiens): 40 µM

Molecule: OCCSC[C@H]1OC(O)[C@H](O)[C@@H]1O (stereo partly shown) [HETR, 5-deoxy-5-(hydroxyethylthio)ribose]
- IC50 ([1]; Trypanosoma brucei): > 100000 nM
- growth of the microorganism inhibited in an in vitro screen (P. falciparum): not
- IC50 [10]: > 1000 µM

Molecule: OC1O[C@H](CSCCF)[C@@H](O)[C@H]1O (stereo partly shown) [MFETR, 5-deoxy-5-(monofluoroethylthio)ribose]
- IC50 [10]: 700 µM

B1: Mouse Liver MTA Phosphorylase (Mus musculus) (protein)
chain: MASGSACTAVKIGIIGGTGLDDPEILEGRTEKYVDTPFGKPSDALILGKIKNVDCVLLARHGRQHTIMPSKVNYQANIWALKEEGCTHVIVTTACGSLREEIQPGDMVIIDQFIDRTSLRPQTFYDGSHCSARGVCHIPMAEPFCPKTREVLIETAKKLGLRCHSKGTIVTIEGPRFSSRAESLIFRTWGADVVNMTTVPEVVLAKEAGICYASIAMATDYDCWKEHEEAVSVDGVLKTMKENANKAKSLLLTTIPQIGSMEWSETLRNLKNMAQFSVLPPRH
notes: of Mouse Liver MTA Phosphorylase; from tissue; host or cells: mouse liver
- Km [15]: 1.3 µM
